Patent US20040170622A1, “Methods and compositions for modulating XBP-1 activity” (President and Fellows of Harvard College, priority 2002, published 2004)

Legend:
Assay type in all cases: cell-based
XBP-1 protein = XBP-1 protein species in MOPC315 and MM.1S myeloma cells treated with proteasome inhibitors (Western blot); details: mouse myeloma MOPC315 and human myeloma MM.1S
Method: A variety of reversible and irreversible inhibitors that inhibit degradation of proteins by the ubiquitin-proteasome pathway have recently been identified. Proteasome inhibitors MG132 and PS341 block the rapid degradation of ubiquitinated proteins such as unspliced, but not spliced XBP-1. Myeloma cells express primarily spliced XBP-1 protein as expected. […] In this experiment lysates from MOPC315 cells were untreated or treated for 6 hours with 5 ug/ml of tunicamycin or 20 uM of MG-132 and were analyzed for the presence of XBP-1 using XBP-1 antibody. The two forms of XBP-1 were distinguished by their molecular weight.
In the presence of proteasome inhibitors, unspliced XBP-1 protein accumulates in the cell and is present at higher levels than the spliced protein. Lysates from Mm. 1S cells were untreated or treated for 1, 4, or 8 hours with 20 uM of PS-341 and were analyzed by western blotting with anti-XBP-1 antibody. Because unspliced, but not spliced XBP-1 is stabilized, the ratio of unspliced to spliced XBP-1 increases in cells treated with proteasome inhibitors.

[1] = system: XBP-1u and XBP-1s proteins; experiment: XBP-1u and XBP-1s protein levels in J558 cells (Western blot); details: J558 cells, 16 hrs
Method: (§1) (A) BiP and CHOP induction was examined by northern blot analysis after treating NIH3T3 or J558 myeloma cells with either MG-132 (20 μM), Tm (10 μg/ml) or both. Cells were pretreated with MG-132 for 1 hr and then further treated with Tm for 4 hrs. Ethidium bromide staining of the gel is shown at the bottom. (B) Inhibition of caspase-12 processing by proteasome inhibitors. Processing of full-length caspase-12 was examined by Western blotting in J558 myeloma cells treated with thapsigargin (1 μM) or PIs (20 μM) during the indicated time periods. (C) Alteration in the ratio of XBP-1 protein species in J558 cells were treated with increasing amounts of MG-132 for 16 hrs. Cells undergoing apoptosis were counted by Annexin V staining. (D) Time course of the XBP-1s to XBP-1u shift. Cells were treated with MG-132 (1 μM) for the indicated times and XBP-1u and spliced protein levels and cell death determined. (E) Alteration in the ratio of XBP-1 species in the MM.1s human myeloma line. Cells were treated with PS-341 (8 nM) in a time course analysis and XBP-1 protein species quantified.
Cells were lysed in RIPA buffer (50 mM Tris pH 7.4, 150 mM NaCl, 1 mM EDTA, 1% Triton X-100, 1% sodium deoxycholate, 0.1% SDS) and lysates subjected to SDS-PAGE and transferred to Hybond P membrane (Amersham-Pharmacia, Piscataway, N.J.). […] HeLa cells were cotransfected with XBP-1u and His-tagged ubiquitin expression plasmids (pMT 107, D. Bohmann, EMBL, Germany) by using the Lipofectamine-2000 reagent (Invitrogen, Carlsbad, Calif.). […] Degradation rates of XBP-1u and XBP-1s proteins were determined by pulse labeling J558 cells with ^35S Met/Cys for 1 hr and chasing for the indicated times.

XBP-1s and XBP-1u = experiment: Ratio of XBP-1 species in MM.1s line and primary MM cells; details: human MM cell line MM.1s and primary MM cells from patient bone marrow
Method: as §1

J558 myeloma cells = experiment: Apoptosis of J558 myeloma cells (Annexin V staining); details: agent alone
Method: as §1
(A) Synergistic effect of Tm and MG-132 on apoptosis. Annexin V positive cells were counted after treating J558 cells for 18 hrs with suboptimal concentrations of Tm and MG-132 as indicated. (B) J558-iXBP cells were generated by retroviral transduction of J558 cells with the U6 promoter based XBP-1 RNAi vector. (C) XBP-1 dependent gene expression in J558 cells that express control GFP, dn-XBP or iXBP-1 treated with Tm. Generation of dn-XBP-1 J558 cells by infection with a retrovirus containing dn-XBP cDNA inserted into the GFP-RV vector (N. N. lwakoshi et al., Nature Immunology 4, 321-329 (2003)). ERdj4, p58^IPK, BiP and CHOP gene expression were examined by Northern blot analysis. (D) Increased apoptosis in iXBP-1 and dn-XBP-1 expressing J558 cells. Cells were treated with the indicated amounts of Tm for 48 hrs and dead cells counted after Annexin V staining.
Cells were stained with annexin V-PE (BD PharMingen, San Jose, Calif.) as recommended and analyzed on a FACScan flow cytometer (Becton Dickinson, San Jose, Calif.).

[2] = system: IRE1α-mediated XBP-1 mRNA splicing; experiment: XBP-1 mRNA level and splicing in J558 cells (Northern blot, RT-PCR); details: J558, Tm 4 hrs; MG-132 10 μM, PS-341 10 μM, ZL3VS 50 μM, AdaAhxL3VS 50 μM
Method: (A) XBP-1 mRNA levels in ER stressed J558 cells treated with Tm for 4 hrs in the absence or presence of MG-132. Cells were pretreated with MG-132 for 1 hr before adding Tm. XBP-1 mRNA levels were determined by Northern blot analysis. […] (C) Effect of a panel of PIs on XBP-1 splicing. Cells were treated with Tm for 4 hrs in the absence or presence of MG-132 (10 μM), PS-341 (10 μM), Lactacystin (10 μM), ZL3VS (50 μM) or AdaAhxL3VS (50 μM), and XBP-1 mRNA splicing measured by RT-PCR analysis. (D) IRE-1α phosphorylation in NIH3T3 cells were treated with Tm as indicated after 2 hrs of pretreatment with MG-132 (10 μM).
Total RNA was prepared by using Trizol reagent, electrophoresed on 1.2% agarose, 6% formaldehyde gels and then transferred onto Genescreen Plus membrane, (NEN, Boston, Mass.). […] Probes for ERdj4 and p58^IPK were generated from cDNA excised from EST clones (ATCC, Manassas, Va.) using appropriate restriction enzymes (ERdj4, IMAGE: 1920927; p58^IPK, IMAGE:2646147).

## CC(C)C[C@H](NC(=O)[C@H](Cc1ccccc1)NC(=O)c1cnccn1)B(O)O [PS-341]
XBP-1 protein
  amount of unspliced XBP-1 protein: dramatic increase in the amount of unspliced XBP-1 protein
  levels of active spliced XBP-1 protein: concomitant decrease in levels of the active spliced XBP-1 protein
[1]
  XBP-1u accumulation and XBP-1s decrease: striking accumulation of XBP-1 u and a concomitant decrease in XBP-1s proteins
XBP-1s and XBP-1u
  shift in the ratio of XBP-1s to XBP-1u: induced the same marked shift in the ratio of XBP-1s to XBP-1u
J558 myeloma cells
  apoptosis in J558 cells: induced apoptosis in J558 cells
[2]
  effect on Tm-induced XBP-1 mRNA splicing: suppressed XBP-1 mRNA splicing as efficiently as MG-132
